Assay results from patent US20090280984A1, “Method of Inhibiting the Growth of Algae” (ITEQ CORPORATION, priority 2008, published 2009).

System: Microcystis aeruginosa
Experiment: Inhibition of algal growth, detection of Chlorophyll-a content by spectrometry (absorbance at 665 nm after ethanol extraction)
Assay type: cell-based
Protocol: In the following embodiment, three specimens, chitosan, glucosamine, and the combination of both, were used as inhibitors to inhibit algal growth and their inhibition efficiency was tested as well. In this embodiment, one kind of toxic Cyanobacteria, Microcystis aeruginosa, is used for the inhibition test. Since chlorophyll-a content of algae is widely used as an indicator of the abundance of algae in a freshwater body, the chlorophyll-a content of Microcystis aeruginosa in the sample was detected by spectrometry.
First, four 0.5 ml portions of Microcystis aeruginosa solution were obtained and were labeled as sample I, II, III and IV, respectively, and 49.5 ml of Bold's medium was added to each sample. Next, chitosan, glucosamine, and the combination were added to sample II, III and IV, respectively, so that sample II contains 10 ppm chitosan, and sample III contains 10 ppm glucosamine, and sample IV contains 5 ppm chitosan and 5 ppm glucosamine. Sample I without any chitosan and glucosamine added was used as the control. After that, these four samples were cultured for 14 days. During that time, the Chlorophyll-a content of four samples were detected every 7 days according to the procedures mentioned below.
A portion of each sample was obtained and centrifuged at 10000 rpm at 20° C. for 15 mins, and then the supernatant was poured out. Next, four 10 ml portions of 95% (v/v) ethanol were added to sample I to IV and mixed with the residues. Next, the solution of each sample was water-bathed in 60° C. water for 30 mins to extract Chlorophyll-a. When being bathed in the water, the solution of each sample was shaken every ten minutes. After that, the solutions were centrifuged at 5000 G at 20° C. for 15 minutes and the supernatants were kept. Then, the absorbance at 665 nm of […] were detected. Finally, according to the “Standard Methods for the Examination Chlorophyll-a in Water-Ethanol Extraction” issued by National Institute of Environmental Analysis, Taiwan (NIEA E508.00B), the absorbance at 665 nm of samples I to IV were calibrated and the concentration of Chlorophyll-a content of each sample was calculated by the absorbance measured.
Basically, the whole process was the same as mentioned above except the concentration of chitosan and glucosamine in samples, and the Chlorophyll-a content was also detected. The concentration of glucosamine and chitosan contained in each sample and the Chlorophyll-a content detected are show in Table 2.

N[C@H]1C(O)O[C@H](CO)[C@@H](O)[C@@H]1O (stereo partly drawn) [III, glucosamine]
Chlorophyll-a Content (Embodiment I, 0th day, Microcystis aeruginosa in Bold's medium): 6.9 ppb
Chlorophyll-a Content (Embodiment I, 7th day, control (sample I) 278 ppb): 33 ppb
Chlorophyll-a Content (Embodiment I, 14th day, control (sample I) 2470 ppb): 554 ppb
Chlorophyll-a Content (Embodiment II, 7th day, Blank 62 ppb, original content 9.7 ppb): 50 ppb
Chlorophyll-a Content (Embodiment II, 14th day, Blank 418 ppb, original content 9.7 ppb): 124 ppb
inhibition of the growth of algae (in words) (Microcystis aeruginosa, chlorophyll-a as indicator): could inhibit the growth of algae
